# In patent publication US7781459B2, “Carboxyalkoxy-substituted acyl-carboxyphenylurea derivatives and their use as medicaments” (Sanofi-Aventis Deutschland GmbH, priority 2002, dated 2010):
# pIC50: −log10 of the molar value. Where two headings read alike, the source gives them in different places.
# Tested on: glycogenolysis in primary cultures of rat hepatocytes
# Assay: Inhibitory potency on glycogenolysis in primary cultures of rat hepatocytes (glucagon-induced glucose production rate)
# Assay type: cell-based
# Details: Hepatocyte
# Method: Analysis of Test Substances for their Inhibitory Potency on Glycogenolysis in Primary Cultures of Rat Hepatocytes
# Hepatocytes were isolated from the livers of fed rats (Sprague-Dawley or Wistar, bodyweight 220-240 g) by means of a standard 2-stage perfusion first with calcium-free buffer solution followed by perfusion with collagenase-containing solution to break up the tissue assembly (Seglen et al, 1979). The cells were incubated in an incubator with 90% humidity at 37° C. and an atmosphere with 5% CO2 in air. The cultivation normally took place with Williams' medium E supplemented with 20 mM glucose, 0.1 mM fructose, 1 μM dexamethasone and 100 nM insulin. Glycogenolysis was induced by changing the culture medium to prewarmed carbogen-gassed Krebs-Henseleit bicarbonate Hepes (20 mM) buffer, pH 7.4, supplemented with 100 nM glucagon (time 0 min). The test substances were normally added at time 0 min as 100× stock solution in DMSO. The final DMSO concentration was not higher than 1% (v/v). The amount of glucose in the culture supernatant was determined after addition of glucagon in the presence and absence of test substance by removing small aliquots of the cell culture supernatant at times 0, 30, 60 and 90 min. The glucose concentration (mM) was determined by enzymatic methods in a biochemical analysis laboratory of Aventis Pharma Deutschland. The glucose production rate was found by linear regression of the glucose concentration at times 30, 60 and 90 min using the following formula:
# Glucose production rate (mM/h)=mM glucose (90 min)−mM glucose (30 min).
# The percent inhibition was calculated using the following formula: […]
# IC50 values (IC50: the concentration (μM) of test substance which brings about a reduction of 50% in the glucose production rate) was estimated by standard curve fitting methods using the percent inhibitions obtained at relevant concentrations of test substance.
# [1] = glycogenolysis induced with 100 nM glucagon, 50% reduction in glucose production rate, read-out: IC50 on hep.
# [2] = comparison examples from WO 01/94300, glucagon-induced glycogenolysis, read-out: IC50 nm hep.
Structure (SMILES),pIC50 [1],pIC50 [2]
"O=C(O)COc1ccccc1NC(=O)NC(=O)c1ccc(F)cc1Cl [Example 1, 2-[3-(2-Chloro-4-fluorobenzoyl)ureido]phenoxyacetic acid]",5.94,–
"O=C(O)COc1cc(C(=O)O)ccc1NC(=O)NC(=O)c1ccc(F)cc1Cl [Example 2, 3-Carboxymethoxy-4-[3-(2-chloro-4-fluorobenzoyl)ureido]benzoic acid]",5.84,–
"COC(=O)CCCOc1cc(C(=O)O)ccc1NC(=O)NC(=O)c1cc(F)c(F)cc1Cl [Example 10, 4-[3-(2-Chloro-4,5-difluorobenzoyl)ureido]-3-(3-methoxycarbonylpropoxy)benzoic acid]",6.97,–
"CC(=O)CCCCCOc1c(Cl)cc(NC(=O)NC(=O)c2ccc(F)cc2Cl)cc1Cl [Example No. 105 from WO 01/94300, reference compound]",–,4.76
"CC(=O)CCCCCOc1ccc(NC(=O)NC(=O)c2ccc(Cl)cc2Cl)c(F)c1 [Example No. 116 from WO 01/94300, reference compound]",–,4.87
